Article PMC12516379, “Rotamer-Controlled Self-Immolative Linkers Enable Tunable Release of Neurosteroid Oxime Prodrugs” (ACS Medicinal Chemistry Letters, 2025)

What was measured:
[1] = Aqueous solubility by visual inspection in acetate buffer (pH 5); settings: for solubility: sodium acetate buffer, pH 5, aqueous buffer, thermodynamic from solid; for Stability in aqueous media during solubility assessment, in words: aqueous media (acetate buffer)
Description: For the solubility assessment, acetate buffer (pH 5) was selected as the media of choice to ensure prodrug stability during analysis.
High aqueous solubility was determined by visual inspection of 5 mg solid material in 0.5 mL
sodium acetate buffer solution. This media was selected to ensure stability of prodrugs during
dissolution in 50 mg/mL aqueous media.

[2] = Stability in acetate buffer pH 5.0 at room temperature via HPLC (UV); type: physicochemical
Description: (§1) Stability studies were conducted in PBS and acetate buffer utilizing high performance liquid chromatography for potential drug storage considerations. […]
(§2) All experiments were performed in duplicate and results are presented as the average of two experimental replicates.
(§3) 1.1 Aqueous Stability in PBS and Acetate Buffer via HPLC
(§4) Material and Instrumentation
(§5) HPLC grade acetonitrile (MeCN) […] HPLC grade water (H 2O), and formic acid (FA) were purchased from Fisher Scientific.
(§6) Puradisc 4 mm PTFE (0.45 μm) syringe filters from Cytiva. Gibco ® Dulbecco’s phosphate-buffered saline (DPBS 1X, no calcium, no magnesium, pH = 7.03) and acetate buffer (pH = 5.0, 10 mM) were purchased directly from Thermo Fisher Scientific and Cytiva, respectively.
(§7) Aqueous stability experiments were performed on an Agilent 1100 HPLC equipped with an Agilent G1315B diode array detector, an Agilent G1316A heated column compartment, and a Zorbax Eclipse XDB-C18 (4.6 x 150 mm, 5 μm) column.
(§8) Procedure for Aqueous Stability Experiments
(§9) Each sample was first weighed out in two separate 2.0 mL vials using an analytical balance.
(§10) Unless otherwise specified, the test compounds were then dissolved in the aqueous media (PBS or acetate buffer) at a standard concentration of 1 mg/mL. All mixtures were subsequently sonicated for approximately 30 sec. […]
(§11) min), precipitates observed in sample solutions were filtered with a PTFE syringe filter prior to analysis. Immediately after sample preparation, injection by the HPLC autosampler was performed, which was recorded as the initial time point (t = 0 min). Solutions were then kept in the autosampler at RT and reinjected at designated intervals without additional filtration or sample modification. Remaining prodrug was defined by the area under the curve (AUC) at 254 nm. Aqueous stability was ascertained by calculating the percentage of the parent compound remaining after each time point. Linear regression of the time (x-axis) vs. ln(%remaining) (y-axis) plot afforded the rate constant k (slope = -k). Pseudo first-order half-lives were then calculated by the following equation: t1/2 = 0.693/k.

[3] = Stability in PBS at room temperature via HPLC (UV); type: physicochemical; settings: phosphate-buffered saline (DPBS)
Description: as §1, §2, §3, §4, §5, §6, §7, §8, §9, §10, §11

[4] = Plasma stability assay at 37 °C via LC-MS/MS, human plasma; type: in vitro ADME; settings: for half-life at 3 µM: human, plasma;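 for all read-outs here: prodrugs at 3 µM incubated in human plasma at 37 °C, intact prodrug quantified by LC-MS/MS over time, values are means of duplicate runs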
Description: To address this, prodrug stability was further evaluated in human plasma at 37 °C using liquid chromatography–tandem mass spectrometry (LC-MS/MS). For direct comparison, a parallel screen was conducted in PBS under identical conditions (Table ). To prevent premature degradation prior to LC-MS/MS analysis, acetonitrile containing formic acid was used as a quenching solution to acidify and stabilize the prodrugs in vials. […] This limitation in detection, along with the need for a more uniform and broadly applicable assessment across all compounds, prompted us to monitor the formation of the parent oxime as an alternative readout.
Stability experiments in human plasma and PBS were performed via liquid chromatography-tandem mass spectrometry (LC-MS/MS) to determine and compare rate of cleavage of progesterone prodrugs as well as selected allopregnanolone prodrugs (3 µM) when incubated at 37 °C. All experiments were performed in duplicate and results are presented as the average of two experimental replicates.

[5] = PBS stability assay at 37 °C via LC-MS/MS; type: physicochemical; settings: for half-life at 3 µM: pH 7.03, PBS
[6] = pH 5, acetate buffer pH 5.0, RT, 1 mg/mL, HPLC 254 nm, read-out: t1/2 in acetate buffer at RT (Tables S5-S8) (converted)
[7] = pH 5, acetate buffer pH 5.0, rt, HPLC (UV), read-out: Half-life (t½) pH 5.0 rt (converted)
[8] = pH 5, acetate buffer pH 5.0, rt, read-out: t½: pH 5.0, rt (Table S23) (converted)
[9] = pH 7.03, DPBS pH 7.03, RT, 1 mg/mL, HPLC 254 nm, read-out: t1/2 in PBS buffer at RT (Tables S1-S4) (converted)
[10] = pH 7.03, PBS, rt, HPLC (UV), read-out: Half-life (t½) PBS rt (converted)
[11] = pH 7.03, PBS, rt, read-out: t½: PBS, rt (Table S23) (converted)
[12] = LC-MS/MS, read-out: Half-life (t½) Plasma 37°C (converted)
[13] = read-out: Plasma, 37 °C t½ (Table S23) (converted)
[14] = unit not given (h in Table S23), read-out: t1/2 of allopregnanolone prodrugs in human plasma at 37 °C (Table S21) (converted)
[15] = phosphate-buffered saline (DPBS), 37 °C, LC-MS/MS, read-out: Half-life (t½) PBS 37°C (converted)
[16] = phosphate-buffered saline (DPBS), 37 °C, read-out: PBS, 37 °C t½ (Table S23) (converted)
[17] = phosphate-buffered saline (DPBS), 37 °C, unit not given (h in Table S23), read-out: t1/2 of allopregnanolone prodrugs in PBS at 37 °C (Table S22) (converted)
[18] = 3 µM, LC-MS/MS, read-out: t1/2 in human plasma at 37 °C (Tables S10-S13, S18) (converted)
[19] = phosphate-buffered saline (DPBS), 37 °C, 3 µM, LC-MS/MS, read-out: t1/2 in PBS at 37 °C (Tables S14-S17) (converted)

## CNCCN(CCN1CCOCC1)C(=O)O/N=C(\C)[C@H]1CC[C@H]2[C@@H]3CCC4=CC(=O)CC[C@]4(C)[C@H]3CC[C@]12C.O=C(O)C(F)(F)F [20j]
[1]
  solubility: > 10 mg/mL
[2]; [6]
  half-life at 1 mg/mL: 99.4 h
[2]; [7]
  half-life at 1 mg/mL: 99.4 h
[2]; [8]
  half-life at 1 mg/mL: 99.4 h
[3]; [9]
  half-life at 1 mg/mL: 21.77 ± 0.19 h
[3]; [10]
  half-life at 1 mg/mL: 21.8 h
[3]; [11]
  half-life at 1 mg/mL: 21.8 h

## CNCCN(C)C(=O)O/N=C(\C)[C@H]1CC[C@H]2[C@@H]3CCC4C[C@H](O)CC[C@]4(C)[C@H]3CC[C@]12C.O=C(O)C(F)(F)F (stereo partly drawn) [21a]
[1]
  solubility: > 5 mg/mL
[4]
  Plasma, 37 °C %rem. at 2h (Table S23): 13%
[4]; [12]
  half-life at 3 µM: 1.27 h
[4]; [13]
  half-life at 3 µM: 0.59 h
[4]; [14]
  half-life at 3 µM: 0.59 h
[5]; PBS, 37 °C, 2 h
  PBS, 37 °C %rem. at 2h (Table S23): 88%
[5]; [15]
  half-life at 3 µM: 9.51 h
[5]; [16]
  half-life at 3 µM: 12.2 h
[5]; [17]
  half-life at 3 µM: 12.2 h

## CNCCN(C(=O)O/N=C(\C)[C@H]1CC[C@H]2[C@@H]3CCC4=CC(=O)CC[C@]4(C)[C@H]3CC[C@]12C)C1CCC1.O=C(O)C(F)(F)F [20d]
[1]
  solubility: > 10 mg/mL
[4]
  Plasma, 37 °C %rem. at 2h (Table S23): 59%
[4]; [18]
  half-life at 3 µM: 2.67 h
[4]; [12]
  half-life at 3 µM: 2.67 h
[4]; [13]
  half-life at 3 µM: 2.67 h
[2]; [6]
  half-life at 1 mg/mL: > 168 h
[2]; [7]
  half-life at 1 mg/mL: > 168 h
[2]; [8]
  half-life at 1 mg/mL: > 168 h
[5]; PBS, 37 °C, 2 h
  PBS, 37 °C %rem. at 2h (Table S23): 44%
[5]; [19]
  half-life at 3 µM: 2.32 h
[5]; [15]
  half-life at 3 µM: 2.32 h
[5]; [16]
  half-life at 3 µM: 2.32 h
[5]; phosphate-buffered saline (DPBS), 37 °C, read-out: t1/2 (h) PBS, 37 °C (Tables S25, S26) (converted)
  half-life at 3 µM: 2.32 h
[5]; phosphate-buffered saline (DPBS), pH 7.03, PBS, 37 °C, 2 h, read-out: % Remaining @ 2h, PBS, 37 °C (Tables S25, S26)
  remaining at 2 h, 3 µM: 44%
[3]; [9]
  half-life at 1 mg/mL: 11.8 ± 0.51 h
[3]; [10]
  half-life at 1 mg/mL: 11.8 h
[3]; [11]
  half-life at 1 mg/mL: 11.8 h

## CNCCN(CCn1ccnc1)C(=O)O/N=C(\C)[C@H]1CC[C@H]2[C@@H]3CCC4C[C@H](O)CC[C@]4(C)[C@H]3CC[C@]12C (stereo partly drawn) [21k]
[1]
  solubility: > 5 mg/mL
[4]
  Plasma, 37 °C %rem. at 2h (Table S23): 14%
[4]; [13]
  half-life at 3 µM: 0.81 h
[4]; [14]
  half-life at 3 µM: 0.81 h
[5]; PBS, 37 °C, 2 h
  PBS, 37 °C %rem. at 2h (Table S23): 62%
[5]; [16]
  half-life at 3 µM: 4.12 h
[5]; [17]
  half-life at 3 µM: 4.12 h

## CNCCN(C(=O)O/N=C(\C)[C@H]1CC[C@H]2[C@@H]3CCC4C[C@H](O)CC[C@]4(C)[C@H]3CC[C@]12C)C1CCC1.O=C(O)C(F)(F)F (stereo partly drawn) [21d]
[1]
  solubility: > 5 mg/mL
[4]
  Plasma, 37 °C %rem. at 2h (Table S23): 16%
[4]; [12]
  half-life at 3 µM: 0.76 h
[4]; [13]
  half-life at 3 µM: 0.76 h
[4]; [14]
  half-life at 3 µM: 0.76 h
[5]; PBS, 37 °C, 2 h
  PBS, 37 °C %rem. at 2h (Table S23): 38%
[5]; [15]
  half-life at 3 µM: 1.69 h
[5]; [16]
  half-life at 3 µM: 1.69 h
[5]; [17]
  half-life at 3 µM: 1.69 h

## C/C(=N\OC(=O)N(C)[C@H](C)[C@@H]1CCCN1)[C@H]1CC[C@H]2[C@@H]3CCC4=CC(=O)CC[C@]4(C)[C@H]3CC[C@]12C.O=C(O)C(F)(F)F [20p]
[1]
  Stability in aqueous media during solubility assessment, in words: poor stability
[4]; 3 µM, LC-MS/MS
  t1/2 in human plasma at 37 °C (Tables S10-S13, S18): unstable during
[5]; PBS
  Prodrug stability / self-immolation in buffer, in words: unstable compound
[5]; [19]
  half-life at 3 µM: 0.61 h

## CNCCN(CCNC)C(=O)O/N=C(\C)[C@H]1CC[C@H]2[C@@H]3CCC4=CC(=O)CC[C@]4(C)[C@H]3CC[C@]12C.Cl.Cl [20x]
[1]
  Stability in aqueous media during solubility assessment, in words: poor stability
[2]; [6]
  half-life at 1 mg/mL: 72.2 h
[2]; [8]
  half-life at 1 mg/mL: > 168 h
[3]; [9]
  half-life at 1 mg/mL: 1.51 ± 0.05 h
[3]; [11]
  half-life at 1 mg/mL: 1.51 h

## CNCCN(C(=O)O/N=C(\C)[C@H]1CC[C@H]2[C@@H]3CCC4C[C@H](O)CC[C@]4(C)[C@H]3CC[C@]12C)C(C)C.O=C(O)C(F)(F)F (stereo partly drawn) [21c]
[1]
  solubility: > 5 mg/mL
[4]
  Plasma, 37 °C %rem. at 2h (Table S23): 16%
[4]; [12]
  half-life at 3 µM: 0.51 h
[4]; [13]
  half-life at 3 µM: 0.76 h
[4]; [14]
  half-life at 3 µM: 0.51 h
[5]; PBS, 37 °C, 2 h
  PBS, 37 °C %rem. at 2h (Table S23): 68%
[5]; [15]
  half-life at 3 µM: 3.78 h
[5]; [16]
  half-life at 3 µM: 3.78 h
[5]; [17]
  half-life at 3 µM: 3.78 h

## C/C(=N\OC(=O)N(C)C[C@@H]1CCCN1)[C@H]1CC[C@H]2[C@@H]3CCC4C[C@H](O)CC[C@]4(C)[C@H]3CC[C@]12C (stereo partly drawn) [21l]
[1]
  solubility: > 5 mg/mL
[4]
  Plasma, 37 °C %rem. at 2h (Table S23): 2%
[4]; [12]
  half-life at 3 µM: 0.36 h
[4]; [13]
  half-life at 3 µM: 0.36 h
[4]; [14]
  half-life at 3 µM: 0.36 h
[5]; PBS, 37 °C, 2 h
  PBS, 37 °C %rem. at 2h (Table S23): 16%
[5]; [15]
  half-life at 3 µM: 0.94 h
[5]; [16]
  half-life at 3 µM: 0.94 h
[5]; [17]
  half-life at 3 µM: 0.94 h

## CNC1(CN(C)C(=O)O/N=C(\C)[C@H]2CC[C@H]3[C@@H]4CCC5=CC(=O)CC[C@]5(C)[C@H]4CC[C@]23C)CC1 [20s]
[1]
  solubility: > 10 mg/mL
[4]
  Plasma, 37 °C %rem. at 2h (Table S23): stable
[4]; LC-MS/MS
  Half-life (t½) Plasma 37°C: stable
[4]; [18]
  half-life at 3 µM: > 24 h
[4]; [13]
  half-life at 3 µM: > 24 h
[5]; PBS
  Prodrug stability / self-immolation in buffer, in words: complete inhibition of cyclization
[5]; PBS, 37 °C, 2 h
  PBS, 37 °C %rem. at 2h (Table S23): 93%
[5]; [19]
  half-life at 3 µM: 18.5 h
[5]; [16]
  half-life at 3 µM: 18.5 h

## C/C(=N\OC(=O)N(CCN)CCN)[C@H]1CC[C@H]2[C@@H]3CCC4=CC(=O)CC[C@]4(C)[C@H]3CC[C@]12C [20w]
[1]
  solubility: > 10 mg/mL
[2]; [6]
  half-life at 1 mg/mL: > 168 h
[2]; [8]
  half-life at 1 mg/mL: > 168 h
[3]; [9]
  half-life at 1 mg/mL: 10.1 ± 0.41 h
[3]; [11]
  half-life at 1 mg/mL: 10.1 h

## CNCCN(C(=O)O/N=C(\C)[C@H]1CC[C@H]2[C@@H]3CCC4C[C@H](O)CC[C@]4(C)[C@H]3CC[C@]12C)C1CC1.O=C(O)C(F)(F)F (stereo partly drawn) [21b]
[1]
  solubility: > 5 mg/mL
[4]
  Plasma, 37 °C %rem. at 2h (Table S23): 16%
[4]; [12]
  half-life at 3 µM: 0.73 h
[4]; [13]
  half-life at 3 µM: 0.73 h
[4]; [14]
  half-life at 3 µM: 0.73 h
[5]; PBS, 37 °C, 2 h
  PBS, 37 °C %rem. at 2h (Table S23): 73%
[5]; [15]
  half-life at 3 µM: 4.08 h
[5]; [16]
  half-life at 3 µM: 4.08 h
[5]; [17]
  half-life at 3 µM: 4.08 h
